These results are taken from publication PMC6356765, “Nepafenac-Loaded Cyclodextrin/Polymer Nanoaggregates: A New Approach to Eye Drop Formulation” (Materials, 2019).

Data set [1] is described as follows: Chemical stability of nepafenac in 1% w/v γCD solution after heating by sonication. In kind it is physicochemical. The conditions noted are these: for Mean (± SD) Nepafenac Concentration: aqueous 1% w/v γCD, n = 3. How it is done:
The chemical stability of nepafenac was determined in aqueous solution containing 1% w/v γCD following heating by sonication. The solution was shaken for 24 h until the drug was completely dissolved and then passed through a 0.45 µm membrane filter. The solution was then divided between four sealed vials. Vial 1 was used as a blank. Vials 2, 3 and 4 were heated in a sonicator at 60 °C for 20, 40 and 60 min, respectively. Drug concentrations were determined by HPLC.
The HPLC assay was performed using a reverse-phase ultra-high-performance liquid chromatography (UHPLC) Ultimate 3000 series system (Dionex Softron GmbH, Germering, Germany) consisting of a LPG-3400SD pump (Dionex, Germering, Germany) with a built-in degasser, WPS-3000 autosampler (Dionex, Germering, Germany), TCC-3100 column compartment (Dionex, Germering, Germany) and CoronaR ultra RS detector (Dionex, Germering, Germany). During the stationary phase, a Phenomenex Kinetex C18 column (150 × 4.6 mm, 5 µm) with matching HPLC Security Guard (Phenomenex, Cheshire, UK) was used. The mobile phase used a mixture of acetonitrile and water (50:50). The flow rate was 1 mL/min, the column oven temperature was ±25 °C and the detection wave length was set to 254 nm. The retention time for nepafenac under these conditions was 2.3 min.

Data set [2] in a line: Phase solubility studies of nepafenac with cyclodextrins. The data set is classed as physicochemical. The conditions noted are these: pure 2.5% HPβCD, aqueous (Figure 2). On the procedure: The solubility of nepafenac in combination with different cyclodextrin concentrations was determined following heating by sonication. Firstly, an excess amount of nepafenac (approximately 5 mg) was added to aqueous solutions containing known concentrations of CDs (ranging up to 15% (w/v) for αCD, γCD, HPαCD, HPβCD, HPγCD and 1.5% (w/v) for βCD) in pure water. The drug suspensions were saturated with nepafenac and heated in a sonicator in sealed vials at 60 °C for 60 min, before being allowed to cool to room temperature. Then, a small amount of solid nepafenac (approximately 2 mg) was added to each suspension to produce drug precipitation. Vials were resealed and placed in a shaker under constant agitation for 7 days. After reaching equilibrium, suspensions were filtered using 0.45 µm membrane filters, before being diluted in pure water and analysed by UHPLC. Determinations were made in triplicate. […]
The apparent stability constant (K1:1) according to the hypothesis of a 1:1 stoichiometric ratio of complexes was calculated using the following equation:(1) K1:1 = slope/S0(1−slope)
In addition, complexation efficiency (CE) was calculated. This factor can be calculated either from the slope of the phase solubility profile or from the ratio of the concentration of the drug/CD complex to free CD [52]:(2) CE=slope/(1−slope)=[Guess/CD complex]/[CD]

Details of data set [3]: method as in PMID 27513223, PMID 18500088, PMID 17189793, PMID 28493461. The conditions noted are these: powdered form; cited from earlier work.
In data set [4] the test system is human cornea epithelial cell line. Further details: method as in PMID 9706061. To be noted: cited from earlier work.

Take `NC(=O)Cc1cccc(C(=O)c2ccccc2)c1N` [Nepafenac, 2-amino-3-benzoylbenzeneacetamide]: the “Degradation of nepafenac on heating by sonication” value in data set [1] (CD aqueous solutions, sonicator heating) is listed as “no degradation”. Also, the “Mean (± SD) Nepafenac Concentration” value in data set [1] (sonication 60 °C 20 min) was determined as 6.41 ± 0.08 µg/mL; in data set [1] (sonication 60 °C 40 min), 6.49 ± 0.07 µg/mL; in data set [1] (sonication 60 °C 60 min), 6.57 ± 0.08 µg/mL. Also, in data set [2], the Solubility of nepafenac was determined as 850 µg/mL. Moreover, the “Biopharmaceutical Classification System class” value in data set [3] is given as “class IV”.

As for `OC[C@H]1O[C@@H]2O[C@H]3[C@H](O)[C@@H](O)[C@@H](O[C@H]4[C@H](O)[C@@H](O)[C@@H](O[C@H]5[C@H](O)[C@@H](O)[C@@H](O[C@H]6[C@H](O)[C@@H](O)[C@@H](O[C@H]7[C@H](O)[C@@H](O)[C@@H](O[C@H]8[C@H](O)[C@@H](O)[C@@H](O[C@H]9[C@H](O)[C@@H](O)[C@@H](O[C@H]1[C@H](O)[C@H]2O)O[C@@H]9CO)O[C@@H]8CO)O[C@@H]7CO)O[C@@H]6CO)O[C@@H]5CO)O[C@@H]4CO)O[C@@H]3CO` [γCD, γ-cyclodextrin], the “Cytotoxic profile (ranking among CDs)” value in data set [4] is “least cytotoxic profile”.
